The text below walks through data of ChEMBL document CHEMBL3124777, “Synthesis and biological evaluation of thiazoline derivatives as new antimicrobial and anticancer agents” (Eur J Med Chem, 2014).

≈ marks a conversion by molar mass, not a printed value.

For orientation: IC50 means the concentration at which inhibition is half-maximal. A word on the MIC: it is the lowest concentration found to suppress growth. A higher MIC goes with weaker potency.

One assay concerns C6. Put plainly: Cytotoxicity against rat C6 cells after 24 hrs by MTT assay. It counts as functional, cell-based. To be noted: C6, 24 h.
`Cc1nnc(SCC(=O)N/N=c2/scc(-c3ccccc3)n2-c2ccccc2)s1` registered an IC50 above 200 µg/mL.

With `O=C(CSc1ncccn1)N/N=c1/scc(-c2ccc(Br)cc2)n1-c1ccccc1`, the IC50 was above 200 µg/mL.

Another assay relates to NIH3T3. The assay is described as follows: Cytotoxicity against mouse NIH/3T3 cells after 24 hrs by MTT assay. To be noted: NIH3T3, 24 h. In kind it is cell-based.
`Cc1nnc(SCC(=O)N/N=c2/scc(-c3ccccc3)n2-c2ccccc2)s1` gave an IC50 of 197 µg/mL (≈ 447 µM).

Consider `O=C(CSc1ncccn1)N/N=c1/scc(-c2ccc(Br)cc2)n1-c1ccccc1`, for which the IC50 amounted to 273 µg/mL (≈ 548 µM).

In another assay the test system is C6. Put plainly: Cytotoxicity against rat C6 cells assessed as cell viability at 200 ug/ml after 24 hrs by MTT assay relative to control. In kind it is functional. As to conditions: C6, 24 h, read-out: Activity.
Regarding `Cc1nnc(SCC(=O)N/N=c2/scc(-c3ccccc3)n2-c2ccccc2)s1`, the viability at 200 µg/mL was determined as 59.2%.

Regarding `O=C(CSc1ncccn1)N/N=c1/scc(-c2ccc(Br)cc2)n1-c1ccccc1`, the viability at 200 µg/mL was 63.2%.

The test system of a further assay is C6. The assay is described as follows: Cytotoxicity against rat C6 cells assessed as cell viability at 100 ug/ml after 24 hrs by MTT assay relative to control. It counts as functional. To be noted: C6, 24 h, read-out: Activity. (Formazan colour is commonly taken as a measure of viable cells.)
Turning to `Cc1nnc(SCC(=O)N/N=c2/scc(-c3ccccc3)n2-c2ccccc2)s1`, the viability at 100 µg/mL is 61.8%.

Consider `O=C(CSc1ncccn1)N/N=c1/scc(-c2ccc(Br)cc2)n1-c1ccccc1`, for which the viability at 100 µg/mL came out at 67.6%.

The next assay deals with C6. The assay is described as follows: Cytotoxicity against rat C6 cells assessed as cell viability at 50 ug/ml after 24 hrs by MTT assay relative to control. In kind it is functional. To be noted: C6, 24 h, read-out: Activity.
For the molecule `Cc1nnc(SCC(=O)N/N=c2/scc(-c3ccccc3)n2-c2ccccc2)s1`, the viability at 50 µg/mL came out at 63.9%.

For the molecule `O=C(CSc1ncccn1)N/N=c1/scc(-c2ccc(Br)cc2)n1-c1ccccc1`, the viability at 50 µg/mL turned out to be 69%.

In the next assay the test system is C6. The assay is described as follows: Cytotoxicity against rat C6 cells assessed as cell viability at 25 ug/ml after 24 hrs by MTT assay relative to control. In kind it is functional. To be noted: C6, 24 h, read-out: Activity.
With `Cc1nnc(SCC(=O)N/N=c2/scc(-c3ccccc3)n2-c2ccccc2)s1`, the viability at 25 µg/mL turned out to be 65.9%.

In the case of `O=C(CSc1ncccn1)N/N=c1/scc(-c2ccc(Br)cc2)n1-c1ccccc1`, the viability at 25 µg/mL is 72.3%.

The next assay relates to C6. Put plainly: Cytotoxicity against rat C6 cells assessed as cell viability at 12 ug/ml after 24 hrs by MTT assay relative to control. In kind it is functional. To be noted: C6, 24 h, read-out: Activity.
On to `Cc1nnc(SCC(=O)N/N=c2/scc(-c3ccccc3)n2-c2ccccc2)s1`, for which the viability at 12 µg/mL amounted to 72.5%.

Turning to `O=C(CSc1ncccn1)N/N=c1/scc(-c2ccc(Br)cc2)n1-c1ccccc1`, the viability at 12 µg/mL was found to be 72.1%.

For a further assay, the system named is C6. The assay is described as follows: Cytotoxicity against rat C6 cells assessed as cell viability at 6 ug/ml after 24 hrs by MTT assay relative to control. It counts as functional. To be noted: C6, 24 h, read-out: Activity.
As to `Cc1nnc(SCC(=O)N/N=c2/scc(-c3ccccc3)n2-c2ccccc2)s1`, the viability at 6 µg/mL was found to be 72.4%.

For `O=C(CSc1ncccn1)N/N=c1/scc(-c2ccc(Br)cc2)n1-c1ccccc1`, the viability at 6 µg/mL came to 76.4%.

For a further assay, the system named is Candida albicans. The assay is described as follows: Antimicrobial activity against Candida albicans ATCC 22019 after 18 to 24 hrs by microbroth dilution method. In kind it is functional.
Settings: not given
In the case of `Cc1nnc(SCC(=O)N/N=c2/scc(-c3ccccc3)n2-c2ccccc2)s1`, the MIC turned out to be 250 µg/mL (≈ 569 µM).

Regarding `O=C(CSc1ncccn1)N/N=c1/scc(-c2ccc(Br)cc2)n1-c1ccccc1`, the MIC turned out to be 250 µg/mL (≈ 502 µM).

The test system of the next assay is Fusarium culmorum. Put plainly: Antimicrobial activity against wild type Fusarium culmorum after 48 to 72 hrs by microbroth dilution method. It counts as functional.
Settings: not given
Background: Broth dilution looks for growth in wells or tubes with falling amounts of substance.
Take `Cc1nnc(SCC(=O)N/N=c2/scc(-c3ccccc3)n2-c2ccccc2)s1`: the MIC turned out to be 250 µg/mL (≈ 569 µM).

In turn, `O=C(CSc1ncccn1)N/N=c1/scc(-c2ccc(Br)cc2)n1-c1ccccc1` registered an MIC of 250 µg/mL (≈ 502 µM).

The next assay relates to Fusarium verticillioides. The assay is described as follows: Antimicrobial activity against Fusarium moniliforme NRRL 1866 after 48 to 72 hrs by microbroth dilution method. In kind it is functional.
Settings: not given
In turn, `Cc1nnc(SCC(=O)N/N=c2/scc(-c3ccccc3)n2-c2ccccc2)s1` showed a minimum inhibitory concentration (MIC) of 250 µg/mL (≈ 569 µM).

In the case of `O=C(CSc1ncccn1)N/N=c1/scc(-c2ccc(Br)cc2)n1-c1ccccc1`, the MIC turned out to be 250 µg/mL (≈ 502 µM).

The test system of the next assay is Fusarium solani. The assay is described as follows: Antimicrobial activity against Fusarium solani NRRL 13414 after 48 to 72 hrs by microbroth dilution method. In kind it is functional.
Settings: not given
`Cc1nnc(SCC(=O)N/N=c2/scc(-c3ccccc3)n2-c2ccccc2)s1`: the MIC was found to be 250 µg/mL (≈ 569 µM).

`O=C(CSc1ncccn1)N/N=c1/scc(-c2ccc(Br)cc2)n1-c1ccccc1` displayed an MIC of 250 µg/mL (≈ 502 µM).

The next assay relates to Aspergillus ochraceus. The assay is described as follows: Antimicrobial activity against Aspergillus ochraceus NRRL 3174 after 48 to 72 hrs by microbroth dilution method. It counts as functional.
Settings: not given
`Cc1nnc(SCC(=O)N/N=c2/scc(-c3ccccc3)n2-c2ccccc2)s1` showed an MIC of 250 µg/mL (≈ 569 µM).

In turn, `O=C(CSc1ncccn1)N/N=c1/scc(-c2ccc(Br)cc2)n1-c1ccccc1` returned an MIC of 250 µg/mL (≈ 502 µM).

In another assay the test system is Trichoderma harzianum. Put plainly: Antimicrobial activity against Trichoderma harzianum NRRL 20565 after 48 to 72 hrs by microbroth dilution method.
Settings: not given
In kind it is functional.
`Cc1nnc(SCC(=O)N/N=c2/scc(-c3ccccc3)n2-c2ccccc2)s1` registered an MIC of 125 µg/mL (≈ 284 µM).

`O=C(CSc1ncccn1)N/N=c1/scc(-c2ccc(Br)cc2)n1-c1ccccc1` returned an MIC of 250 µg/mL (≈ 502 µM).

For the next assay, the system named is Penicillium chrysogenum. The assay is described as follows: Antimicrobial activity against Penicillium chrysogenum NRRL 1951 after 48 to 72 hrs by microbroth dilution method. It counts as functional.
Settings: not given
Molecule `Cc1nnc(SCC(=O)N/N=c2/scc(-c3ccccc3)n2-c2ccccc2)s1` gave an MIC of 250 µg/mL (≈ 569 µM).

For `O=C(CSc1ncccn1)N/N=c1/scc(-c2ccc(Br)cc2)n1-c1ccccc1`, the minimum inhibitory concentration (MIC) amounted to 250 µg/mL (≈ 502 µM).

A further assay concerns Aspergillus parasiticus. The assay is described as follows: Antimicrobial activity against Aspergillus parasiticus NRRL 465 after 48 to 72 hrs by microbroth dilution method. It counts as functional.
Settings: not given
`Cc1nnc(SCC(=O)N/N=c2/scc(-c3ccccc3)n2-c2ccccc2)s1` had an MIC of 250 µg/mL (≈ 569 µM).

`O=C(CSc1ncccn1)N/N=c1/scc(-c2ccc(Br)cc2)n1-c1ccccc1` yielded an MIC of 250 µg/mL (≈ 502 µM).

The subject of another assay is Bacillus subtilis. The assay is described as follows: Antimicrobial activity against Bacillus subtilis NRS-744 after 18 to 24 hrs by microbroth dilution method. In kind it is functional.
Settings: not given
In turn, `Cc1nnc(SCC(=O)N/N=c2/scc(-c3ccccc3)n2-c2ccccc2)s1` registered an MIC of 500 µg/mL (≈ 1140 µM).

`O=C(CSc1ncccn1)N/N=c1/scc(-c2ccc(Br)cc2)n1-c1ccccc1` registered a minimum inhibitory concentration (MIC) of 250 µg/mL (≈ 502 µM).

The subject of a further assay is Micrococcus luteus. Put plainly: Antimicrobial activity against Micrococcus luteus NRLL B-4375 after 18 to 24 hrs by microbroth dilution method.
Settings: not given
In kind it is functional.
The molecule `Cc1nnc(SCC(=O)N/N=c2/scc(-c3ccccc3)n2-c2ccccc2)s1` gave an MIC of 250 µg/mL (≈ 569 µM).

Turning to `O=C(CSc1ncccn1)N/N=c1/scc(-c2ccc(Br)cc2)n1-c1ccccc1`, it took 250 µg/mL (≈ 502 µM) to inhibit growth (MIC).

For another assay, the system named is Pseudomonas aeruginosa. Put plainly: Antimicrobial activity against Pseudomonas aeruginosa […] after 18 to 24 hrs by microbroth dilution method. It counts as functional.
Settings: not given
Take `Cc1nnc(SCC(=O)N/N=c2/scc(-c3ccccc3)n2-c2ccccc2)s1`: the MIC is 250 µg/mL (≈ 569 µM).

As to `O=C(CSc1ncccn1)N/N=c1/scc(-c2ccc(Br)cc2)n1-c1ccccc1`, inhibition of growth (MIC) required 250 µg/mL (≈ 502 µM).

The test system of another assay is Escherichia coli. The assay is described as follows: Antimicrobial activity against Escherichia coli ATCC 25922 after 18 to 24 hrs by microbroth dilution method. It counts as functional.
Settings: not given
As to `Cc1nnc(SCC(=O)N/N=c2/scc(-c3ccccc3)n2-c2ccccc2)s1`, it took 250 µg/mL (≈ 569 µM) to inhibit growth (MIC).

With `O=C(CSc1ncccn1)N/N=c1/scc(-c2ccc(Br)cc2)n1-c1ccccc1`, the MIC was determined as 250 µg/mL (≈ 502 µM).

The next assay relates to Listeria monocytogenes. The assay is described as follows: Antimicrobial activity against Listeria monocytogenes ATCC 7644 after 18 to 24 hrs by microbroth dilution method.
Settings: not given
It counts as functional.
For `Cc1nnc(SCC(=O)N/N=c2/scc(-c3ccccc3)n2-c2ccccc2)s1`, inhibition of growth (MIC) required 250 µg/mL (≈ 569 µM).

In turn, `O=C(CSc1ncccn1)N/N=c1/scc(-c2ccc(Br)cc2)n1-c1ccccc1` came in with an MIC of 250 µg/mL (≈ 502 µM).

The next assay has as its system Staphylococcus aureus. The assay is described as follows: Antimicrobial activity against Staphylococcus aureus NRRL B-767 after 18 to 24 hrs by microbroth dilution method. It counts as functional.
Settings: not given
Molecule `Cc1nnc(SCC(=O)N/N=c2/scc(-c3ccccc3)n2-c2ccccc2)s1` yielded an MIC of 500 µg/mL (≈ 1140 µM).

For `O=C(CSc1ncccn1)N/N=c1/scc(-c2ccc(Br)cc2)n1-c1ccccc1`, the MIC was found to be 500 µg/mL (≈ 1000 µM).
